Experimental data reported in patent US5086042A, “Peptides with sulfate ester groups” (Fisons Corporation, priority 1989, dated 1992).
Non-standard residues stand in square brackets, D forms with d. Residues, ends and D or L forms follow the SMILES beside them. sY = N[C@@H](Cc1ccc(OS(=O)(=O)O)cc1)C(=O)O

Test system: Male Sprague-Dawley rats
Assay type: in vivo
Details: rat, intraperitoneal; for % FEEDING INHIBITION 0.5 hr / % FEEDING INHIBITION 3 hr: 30 μg/kg, vs saline controls; for % FEEDING INHIBITION 0.5 hr / % FEEDING INHIBITION 0.5 hr (values marked *) / feeding inhibition during the 0.5 hour feeding period: 0.5 hr feeding period; for % FEEDING INHIBITION 3 hr / % FEEDING INHIBITION 3 hr (values marked *) / feeding inhibition during the 3 hour feeding period: 3 hr feeding period; for % FEEDING INHIBITION 3 hr: IA means inactive; for % FEEDING INHIBITION 3 hr (values marked *) / % FEEDING INHIBITION 0.5 hr (values marked *): 300 μg/kg, <10% inhibition at 30 μg/kg; for feeding inhibition during the 0.5 hour feeding period: 0.3 μg/kg; for feeding inhibition during the 3 hour feeding period: 3 μg/kg
Procedure: The peptides of this invention have the ability to inhibit feeding activity in mammals. As a result they have utility in the prevention and treatment of obesity.
Male Sprague-Dawley rats (weighing 300-350 g) are individually caged and maintained on a 12 hr. light, dark cycle and trained for at least 14 days to feed during a three hr period of the dark cycle but not the 21 hours preceding that three hr period. The day of the study, rats are dosed intraperitoneally with saline (controls) or test compound (dissolved in saline; usually at a concentration of 0.3 to 300 micrograms of test compound per kg of rat weight). Food is introduced 10 minutes after administration of saline or test compound. […] The % feeding inhibition for the 1/2 hr and 3 hr feeding periods obtained by administering a dose of 30 μg/kg of test compound is given in Table 2 for CCK-8 and various compounds of the invention. For example, the % feeding inhibition obtained with CCK-8 (first line of Table 2) was 70% for the 1/2 hr feeding period and 25% for the 3-hour period.

Row | Molecule | % FEEDING INHIBITION 0.5 hr | % FEEDING INHIBITION 3 hr | also measured
1 | CC[C@H](C)[C@H](NC(=O)[C@H](Cc1ccc(OS(=O)(=O)O)cc1)NC(=O)CCC(=O)O)C(=O)NCC(=O)N[C@@H](Cc1c[nH]c2ccccc12)C(=O)N[C@H](C(=O)N[C@@H](CC(=O)O)C(=O)N[C@@H](Cc1ccccc1)C(N)=O)[C@@H](C)CC [Suc-Tyr(SO3 H)-Ile-Gly-Trp-Ile-Asp-Phe-NH2] (HELM PEPTIDE1{[O=C(O)CCC(=O)[*:2]].[O=C([C@H](Cc1ccc(OS(=O)(=O)O)cc1)N[*:1])[*:2]].I.G.W.I.D.F.[am]}$$$$V2.0) | 73% | 54% | 
2 | CSCC[C@H](NC(=O)[C@H](Cc1ccc(OS(=O)(=O)O)cc1)NC(=O)[C@@H](N)CC(=O)O)C(=O)NCC(=O)N[C@@H](Cc1c[nH]c2ccccc12)C(=O)N[C@@H](CCSC)C(=O)N[C@@H](CC(=O)O)C(=O)N[C@@H](Cc1ccc(Cl)cc1)C(N)=O [H-As-Tyr(SO3 H)-Met-Gly-Trp-Met-Asp-Phe(4-Cl)-NH2] | 54% |  | % FEEDING INHIBITION 3 hr (values marked *): 28%
3 | CSCC[C@H](NC(=O)[C@H](Cc1ccc(OS(=O)(=O)O)cc1)NC(=O)[C@@H](N)CC(=O)O)C(=O)NCC(=O)N[C@@H](Cc1c[nH]c2ccccc12)C(=O)N[C@@H](CCSC)C(=O)N[C@@H](CC(=O)O)C(=O)N[C@@H](Cc1ccc(N)cc1)C(N)=O [H-Asp-Tyr(SO3 H)-Met-Gly-Trp-Met-Asp-Phe(4-NH2)-NH2] | 27% |  | 
4 | CSCC[C@H](NC(=O)[C@H](Cc1ccc(OS(=O)(=O)O)cc1)NC(=O)[C@@H](N)CC(=O)O)C(=O)NCC(=O)N[C@@H](Cc1ccc2ccccc2c1)C(=O)N[C@@H](CCSC)C(=O)N[C@@H](CC(=O)O)C(=O)N[C@@H](Cc1ccccc1)C(N)=O [H-Asp-Tyr(SO3)-Met-Gly-Nal-Met-Asp-Phe-NH2] (HELM PEPTIDE1{D.[O=C([C@H](Cc1ccc(OS(=O)(=O)O)cc1)N[*:1])[*:2]].M.G.[O=C([C@H](Cc1ccc2ccccc2c1)N[*:1])[*:2]].M.D.F.[am]}$$$$V2.0) |  |  | % FEEDING INHIBITION 0.5 hr (values marked *): 52%
5 | Hpp(SO3 H)-Ahx-Gly-Trp-Ahx-Asp-Phe-NH2 | 100% | 99% | feeding inhibition during the 0.5 hour feeding period: 20-72%; feeding inhibition during the 3 hour feeding period: 50-90%
6 | CSCC[C@H](NC(=O)[C@H](Cc1ccc(OS(=O)(=O)O)cc1)NC(=O)C[C@H](N)C(=O)O)C(=O)NCC(=O)N[C@@H](Cc1c[nH]c2ccccc12)C(=O)N[C@@H](CCSC)C(=O)N[C@@H](CC(=O)O)C(=O)N[C@@H](Cc1ccccc1)C(N)=O [H-βAsp-Tyr(SO3 H)-Met-Gly-Trp-Met-Asp-Phe-NH2] | 91% | 21% | 
7 | Suc-Tyr(SO3 H)-Ahx-Gly-Trp-Ahx-Asp-Phe-NH2 | 100% | 97% | feeding inhibition during the 0.5 hour feeding period: 20-72%; feeding inhibition during the 3 hour feeding period: 50-90%
8 | COc1ccc(C[C@H](NC(=O)[C@H](CC(=O)O)NC(=O)[C@H](CCSC)NC(=O)[C@H](Cc2c[nH]c3ccccc23)NC(=O)CNC(=O)[C@H](CCSC)NC(=O)[C@H](Cc2ccc(OS(=O)(=O)O)cc2)NC(=O)[C@@H](N)CC(=O)O)C(N)=O)cc1 [H-Asp-Tyr(SO3 H)-Met-Gly-Trp-Met-Asp-Tyr(Me)-NH2] (H-D[sY]MGWMDY(Me)-NH2) |  |  | % FEEDING INHIBITION 0.5 hr (values marked *): 72%
9 | CSCC[C@H](NC(=O)[C@H](Cc1ccc(OS(=O)(=O)O)cc1)NC(=O)[C@H](N)CC(=O)O)C(=O)NCC(=O)N[C@@H](Cc1c[nH]c2ccccc12)C(=O)N[C@@H](CCSC)C(=O)N[C@@H](CC(=O)O)C(=O)N[C@@H](Cc1ccccc1)C(N)=O [H-DAsp-Tyr(SO3 H)-Met-Gly-Trp-Met-Asp-Phe-NH2] | 99% | 40% | 
10 | CSCC[C@H](NC(=O)[C@H](Cc1c[nH]c2ccccc12)NC(=O)CNC(=O)[C@@H](CCSC)NC(=O)[C@H](Cc1ccc(OS(=O)(=O)O)cc1)NC(=O)[C@@H](N)CC(=O)O)C(=O)N[C@@H](CC(=O)O)C(=O)N[C@@H](Cc1ccccc1)C(N)=O [H-Asp-Tyr(SO3 H)-DMet-Gly-Trp-Met-Asp-Phe-NH3] | 17% |  | 
11 | CSCC[C@H](NC(=O)[C@H](Cc1ccc(OS(=O)(=O)O)cc1)NC(=O)[C@@H](N)CC(=O)O)C(=O)NCC(=O)N[C@@H](Cc1c[nH]c2ccccc12)C(=O)N[C@@H](CCSC)C(=O)N[C@@H](CC(=O)O)C(=O)N[C@@H](Cc1ccccc1)C(N)=O [CCK-8, Asp-Tyr(SO3 H)-Met-Gly-Trp-Met-Asp-Phe-NH2, reference compound] | 70% | 25% | 
12 | CSCC[C@H](NC(=O)[C@H](Cc1ccc(OS(=O)(=O)O)cc1)NC(=O)[C@@H](N)CC(=O)O)C(=O)NCC(=O)N[C@H](Cc1c[nH]c2ccccc12)C(=O)N[C@@H](CCSC)C(=O)N[C@@H](CC(=O)O)C(=O)N[C@@H](Cc1ccccc1)C(N)=O [H-Asp-Tyr(SO3 H)-Met-Gly-DTrp-Met-Asp-Phe-NH2] |  |  | % FEEDING INHIBITION 0.5 hr (values marked *): 42%
13 | CSCC[C@H](NC(=O)[C@H](Cc1c[nH]c2ccccc12)NC(=O)CNC(=O)[C@H](CCSC)NC(=O)[C@@H](N)Cc1ccc(OS(=O)(=O)O)cc1)C(=O)N[C@@H](CC(=O)O)C(=O)N[C@@H](Cc1ccccc1)C(N)=O [H-Try(SO3 H)-Met-Gly-Trp-Met-Asp-Phe-NH2, H-Tyr(SO3 H)-Met-Gly-Trp-Met-Asp-Phe-NH2] (HELM PEPTIDE1{[N[C@@H](Cc1ccc(OS(=O)(=O)O)cc1)C(=O)[*:2]].M.G.W.M.D.F.[am]}$$$$V2.0) | 50% |  | % FEEDING INHIBITION 3 hr (values marked *): 30%
14 | CSCC[C@H](NC(=O)[C@H](Cc1ccc(OS(=O)(=O)O)cc1)NC(=O)[C@@H](N)CC(=O)O)C(=O)NCC(=O)N[C@@H](Cc1c[nH]c2ccccc12)C(=O)N[C@H](CCSC)C(=O)N[C@@H](CC(=O)O)C(=O)N[C@@H](Cc1ccccc1)C(N)=O [H-Asp-Tyr(SO3 H)-Met-Gly-Trp-DMet-Asp-Phe-NH2] |  |  | % FEEDING INHIBITION 0.5 hr (values marked *): 30%
15 | CSCC[C@H](NC(=O)[C@H](Cc1ccc(OS(=O)(=O)O)cc1)NC=O)C(=O)NCC(=O)N[C@@H](Cc1c[nH]c2ccccc12)C(=O)N[C@@H](CCSC)C(=O)N[C@@H](CC(=O)O)C(=O)N[C@@H](Cc1ccccc1)C(N)=O [For-Tyr(SO3 H)-Met-Gly-Trp-Met-Asp-Phe-NH2] (HELM PEPTIDE1{[O=C[*:2]].[O=C([C@H](Cc1ccc(OS(=O)(=O)O)cc1)N[*:1])[*:2]].M.G.W.M.D.F.[am]}$$$$V2.0) | 100% | 66% | 
16 | Hpp(SO3 sH)-Ile-Gly-Trp-Ahx-Asp-MePhe-NH2 [Hpp(SO3 H)-Ile-Gly-Trp-Ahx-Asp-MePhe-NH2] | 98% | 100% | feeding inhibition during the 0.5 hour feeding period: 20-72%; feeding inhibition during the 3 hour feeding period: 50-90%
